This note sets out measurements from US9163018B2, “Method of treatment of age-related macular degeneration (AMD)” (Prana Biotechnology Limited, priority 2006, dated 2015).

The target of one data set is T1, Aβ 1-42 (Homo sapiens, UniProt P05067).
T1 construct: The reaction solutions contained Aβ 1-42 at concentrations
The experiment in a line: Fluorometric H2O2 assay (inhibition of Abeta H2O2 production). The format is biochemical. Conditions: concentration required to inhibit 50% of Abeta H2O2 production; read-out: H2O2 IC50. Put shortly: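 Copper-dependent Aβ H2O2 production measured fluorometrically with deacetylated dichlorofluorescein plus HRP in PBS, pH 7.4. Incubation 60 min at 37 C, test compound included in wells. H2O2 quantified against H2O2 standards.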

Data set [1] has as its system primary cortical neuronal cultured cells. The experiment in a line: Test compound cytotoxicity, MTS assay, primary cortical neuronal cultures. The format is cell-based, mouse. Put shortly:
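Primary cortical neurons were cultured five days in Neurobasal/B27, then exposed on day six to compounds (from 2.5 mM DMSO stocks) in medium minus antioxidants, in triplicate for 4 days at 37° C. Viability was measured by MTS, 2 h at 37° C, absorbance at 560 nm.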
A general note: Tetrazolium dyes change colour on reduction, which living cells bring about.

Data set [2] concerns Abeta in extract of post-mortem human AD brain tissue. Briefly: BAS: human brain amyloid solubilization assay. The format is biochemical. Conditions: max effect across the concentration range, referenced to baseline PBS. The procedure, abridged: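 Plaque-bearing post-mortem AD cortex homogenised in ice-cold PBS pH 7.4; soluble Aβ in 100,000×g supernatant, insoluble Aβ from resuspended pellet. Fractions run on Tris-Tricine SDS-PAGE, immunoblotted with W02, densitometry against synthetic Aβ40 standards.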

Data set [3] deals with T2, Abeta:Zn (25:50 μM) Synthetic Aggregations (Homo sapiens, UniProt P05067).
T2 construct: PB Compound Mediated Dissolution of Aggregated Abeta 1-42; purchased Keck Laboratory, Yale University School of Medicine
The experiment in a line: Disaggregation of Abeta:Zn synthetic aggregates (ThT fluorescence). The format is biochemical. Conditions: for Disaggregation % Aggregate reduction at 5 μM: 5 μM test compound; for EC50: Abeta:Zn 25:50 μM aggregates. The procedure, abridged:
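Abeta1-42 (25 μM) with ZnCl2 (50 μM) and ThT (50 μM) in PBS pH 6.6 was preaggregated 24 h at 37 degrees with rotation. Aggregates were then exposed to compound (final 1-50 μM, DMSO) for 2 h at 37 degrees. ThT fluorescence was read at ex 450/em 480 nm.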

Data set [4] in a line: E Log D, chromatographic method. The format is physicochemical. Conditions: pH 7.4. The protocol:
Effective Log D values were measured using a chromatographic method employing a SUPELCOSIL LC-ABZ column using an octanol saturated mobile phase at pH 7.4.

Data set [5] is described as follows: Mice plasma concentration after oral dose. Conditions: 30 min to 4 h after single or repeat oral dose of 30 mg/kg. It is filed as in vivo.
In a further data set the test system is Aβ deposits. Conditions: daily oral gavage 30 mg/kg, 9 weeks, 13-14 months old transgenic mice.
The subject of data set [6] is M17 human neuroblastoma cells. The experiment in a line: Cytotoxicity, M17 human neuroblastoma cells. The format is cell-based. Conditions: for Cytotox (% viable) M17 cells at 1 μM: 1 μM test compound; for Cytotox (% viable) M17 cells at 10 μM: 10 μM test compound. The protocol:
Assay 3. MTS Assay for Cell Viability
Cell viability is determined using the MTS assay. Culture medium is replaced with fresh neurobasal medium plus B27 supplements minus antioxidants. 1/10th volume MTS solution (Cell Titre 96 Aqueous One, Promega Corporation) and incubated at 37° C., 2 hrs. 200 microliter aliquots are measured with a spectrophotometer at 560 nm.

The conditions of data set [7]: mouse, in vivo, 10 days.
In data set [8] the test system is dityrosine oligomerization. Briefly: CuTy: inhibition of dityrosine oligomerization. The format is biochemical. Conditions: referenced to in-house standard (set as 100% inhibition).
Data set [9] relates to metal ions in retinal drusen. Briefly: Post mortem retina screening, ZP1 zinc labeling of Bruch membrane. Conditions: 15 hours incubation; TPEN 100 μM, PB-1033 100 and 250 μM; 10 μM ZP1. The protocol: Post Mortem Screening The BAS assay is adopted for post mortem retina. Using a trephine, 6 mm diameter regions of peripheral retina from frozen donor eyes are dissected. Following defrosting, the neuronal retina and the RPE cells are removed by gentle agitation in PBS buffer. Following removal of the RPE cells, strips of the Bruch membrane are cut from the eye. 4 samples are prepared: 1) Control […] Samples are then washed 3 times and the labeling visualized using a fluorescence and confocal microscope. A repeat of this procedure is performed with the exception that samples are incubated for a period of 15 hours before washing to determine differential metal binding over this longer period. The test results are in the form of fluorescence imaging from a confocal microscope of the 4 samples tested in this Example after 15 hours of sample incubation. […] Fluorescence microscopic photographs (which are in colour) are available upon request from the […].

T2 sequence (P05067 672-713 limits assumed): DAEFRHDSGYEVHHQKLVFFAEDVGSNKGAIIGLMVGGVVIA
T1 sequence (P05067 672-713 limits assumed): as above

On to `O=C(NCCc1c[nH]cn1)c1ccc2c(Cl)cc(Cl)c(O)c2n1` [PB 1038], for which the IC50 at Aβ 1-42 worked out at 260 nM. In addition, the “Cytotox (% viable) Neuronal cells at 1 μM” value in data set [1] (1 μM test compound) is reported as 91%. For the same compound, in [1] (10 μM test compound), the “Cytotox (% viable) Neuronal cells at 10 μM” value turned out to be 84%. In addition, the BAS max effect in data set [2] came out at 627%. In data set [3], the “Disaggregation % Aggregate reduction at 5 μM” value is 51.3% and the EC50 turned out to be 4850 nM. Besides, the “ElogD (E)” value in data set [4] is 2.92. Further, the Mice plasma concentration entry in data set [5] is on record as “Up to 2694 ng/ mL ng/mL”. Also, in the data set on Aβ deposits, the “Tg Mice % difference from control in Amyloid plaque abundance” value is “Decrease”, the “Tg Mice % difference from control in insoluble brain amyloid burden” value is “Decrease” and the “Tg Mice % difference from control in soluble brain amyloid burden” value was “Increase”.
Take `CCn1cnc2c(O)c(I)cc(Cl)c2c1=O` [PB 1138]: the IC50 on Aβ 1-42 stood at 300 nM. In data set [6], the “Cytotox (% viable) M17 cells at 1 μM” value is recorded as 99.7% and the “Cytotox (% viable) M17 cells at 10 μM” value is 68.2%. Moreover, in data set [3], the “Disaggregation % Aggregate reduction at 5 μM” value was found to be 53% and the EC50 was found to be 4700 nM. Also, the Mice plasma concentration entry in data set [5] is “Up to 1802 ng/ mL ng/mL”. The “Toxicity at 30 mg/kg” value in data set [7] is reported as 10 days, 2/4 deaths.
As to `CC(C)c1cnc2c(O)c(I)ccn2c1=O` [PB 1142], the IC50 at Aβ 1-42 came out at 370 nM. In data set [6], the “Cytotox (% viable) M17 cells at 1 μM” value is on record as 96.7% and the “Cytotox (% viable) M17 cells at 10 μM” value amounted to 44.2%. Besides, in data set [3], the “Disaggregation % Aggregate reduction at 5 μM” value amounted to 42% and the EC50 worked out at 7100 nM. Besides, in data set [7], the “Toxicity at 30 mg/kg” value is listed as 10 days, 1/4 death.
For the compound `CCCCc1cnc2c(O)c(I)ccn2c1=O` [PB 1145], the IC50 on Aβ 1-42 came to 660 nM. Further, in data set [6], the “Cytotox (% viable) M17 cells at 1 μM” value is recorded as 101.7% and the “Cytotox (% viable) M17 cells at 10 μM” value is given as 58.7%. For the same compound, in [3], the “Disaggregation % Aggregate reduction at 5 μM” value is 28% and the 50% effective concentration (EC50) was found to be 7200 nM. Further, the “Toxicity at 30 mg/kg” value in [7] is on record as 10 days, 2/4 death.
Take `CCCCc1cnc2c(O)cccn2c1=S` [PB 1148]: at Aβ 1-42, the IC50 was determined as 410 nM. Besides, in data set [3], the “Disaggregation % Aggregate reduction at 5 μM” value is 70% and the EC50 is 1550 nM. Besides, the Mice plasma concentration result in [5] is listed as “Up to 57 ng/ml ng/mL”. Moreover, the “Toxicity at 30 mg/kg” value in data set [7] is 7 days, 2/4 deaths.
With `CC(C)n1cnc2c(O)c(I)ccc2c1=O` [PB 1153], on Aβ 1-42, the IC50 was 320 nM. Further, in data set [3], the “Disaggregation % Aggregate reduction at 5 μM” value is 53% and the response was half-maximal at 4700 nM (EC50). In data set [5], the Mice plasma concentration result is listed as “Up to 277 ng/ml ng/mL”. The “Toxicity at 30 mg/kg” value in data set [7] is 10 days, 1/4 deaths.
Take `O=c1c2ccc(I)c(O)c2ncn1-c1ccc(F)cc1F` [PB 1157]: on Aβ 1-42, the IC50 was 380 nM. Also, in data set [6], the “Cytotox (% viable) M17 cells at 1 μM” value came to 90.3% and the “Cytotox (% viable) M17 cells at 10 μM” value was 80.3%. Moreover, in data set [3], the “Disaggregation % Aggregate reduction at 5 μM” value was 45% and the midpoint of the response, the EC50, lay at 8100 nM. The “Toxicity at 30 mg/kg” value in data set [7] is given as 6 days, 2/4 deaths.
`O=C(NCc1ccc(F)cc1)c1cnc2c(O)c(I)ccn2c1=O` [PB 1158]: the IC50 at Aβ 1-42 was found to be 990 nM. In data set [6], the “Cytotox (% viable) M17 cells at 1 μM” value is listed as 104.7% and the “Cytotox (% viable) M17 cells at 10 μM” value was 56%. Also, in [3], the “Disaggregation % Aggregate reduction at 5 μM” value was determined as 10% and the EC50 is above 20000 nM. Also, in data set [7], the “Toxicity at 30 mg/kg” value was 7 days, 4/4 deaths.
With `CCn1cnc2c(O)c(I)ccc2c1=S` [PB 1168], the IC50 on Aβ 1-42 is 400 nM. Besides, in data set [6], the “Cytotox (% viable) M17 cells at 1 μM” value is recorded as 85.7% and the “Cytotox (% viable) M17 cells at 10 μM” value was 43%. In data set [3], the “Disaggregation % Aggregate reduction at 5 μM” value is 70% and the EC50 stood at 1110 nM. Moreover, in data set [5], the Mice plasma concentration result is recorded as “Up to 400 ng/ ml ng/mL”. Besides, the “Toxicity at 30 mg/kg” value in [7] was 10 days, none, 1/4 mild signs.
As for `Nc1cc(Cn2cnc3c(O)c(Cl)cc(Cl)c3c2=O)ccn1` [PB 1250], the IC50 at Aβ 1-42 was 480 nM. In data set [6], the “Cytotox (% viable) M17 cells at 1 μM” value was 114.8% and the “Cytotox (% viable) M17 cells at 10 μM” value is reported as 100.7%. The “CuTy % inhibition of dityrosine oligomerization” value in data set [8] is on record as “CuTy: 80% inhibition”. The “Toxicity at 30 mg/kg” value in data set [7] is on record as 10 days, 1/4 deaths.
`c1ccc(CN(CCN(Cc2ccccn2)Cc2ccccn2)Cc2ccccn2)nc1` [TPEN, reference compound]: the “ZP1 (zinc sensor) labeling of post mortem Bruch membrane” value in [9] is reported as “inhibited ZP1 labeling”.

As a reminder, the IC50 is the concentration needed to halve the response being measured. The EC50 is the concentration giving half of the maximal effect.
